Data as given in patent USRE50631E1, “ROR1 antibody immunoconjugates” (VelosBio Inc., priority 2017, dated 2025).
Where “and” joins values, the source holds several entries; their conditions need not be identical. Identical values can stand only once. Non-standard residues stand in square brackets, D forms with d. Residues, ends and D or L forms follow the SMILES beside them. *: point of attachment. Dolaproine = CO[C@@H]([C@@H]1CCCN1)[C@@H](C)C(=O)O; Dil = CC[C@H](C)[C@H](NC)[C@@H](CC(=O)O)OC; X1 = C[C@@H](N*)[C@@H](O)c1ccccc1; NMeV = CN[C@H](C(=O)O)C(C)C

Legend:
[1] = tested on: HCC1187; assay: Cytotoxicity in vitro (CellTiter-Glo viability), HCC1187; settings: read-out: EC50 (nM), cytotoxicity in vitro; HCC1187 (TNBC), 72 hours
Procedure: (§1) ROR1 binding by these conjugates was tested in cell culture to define the potency of various linker-cytotoxic agent combinations. Three different types of cancer cell lines were tested: B-lymphoma cell-lines TMD-8, HBL-1, and DOHH2; triple negative breast cancer cell lines HCC1187, MDA-MB-468, Bt549; and ovarian cancer cell lines A2008, TOV112D, JHOM1, and SKOvr3.
(§2) Cells were cultured in log phase growth and distributed into 96-well plates. Each cell line was plated at a slightly different cell density, ranging from 5×10^3 to 50×10^4 cells/well. Cells in duplicate were incubated with 3-fold serial dilution of a particular immunoconjugate (10, 3.33, 1.11, 0.37, 0.12, 0.041, 0.014, and 0.0045 μM) for 72 hours at 37° C. and 5% CO2. After treatment, cells were incubated with an equal volume of CellTiter-Glo® reagent (Promega Inc.) for 15 minutes at room temperature and viability was determined by a luminometer. Curves and EC50 values were generated in GraphPad Prism using a sigmoidal dose response non-linear regression fit.
(§3) Cells were grown and distributed into 96-well plates as described in Example 5. […] After treatment, cell viability was determined as described in Example 5. Cell surface ROR1 expression was assessed by quantitative flow cytometry and ROR1 expression was characterized as MFI>30 or MFI<30 (MFI: mean fluorescent intensity).

[2] = tested on: DOHH2; settings: read-out: EC50 (nM), cytotoxicity in vitro; DOHH2 (DLBCL), 72 hours
Procedure: as §1, §2, §3

[3] = tested on: HBL-1; assay: Cytotoxicity in vitro (CellTiter-Glo viability), HBL-1; assay type: cell-based, human; settings: HBL-1 (DLBCL), 72 hours
[4] = tested on: SKOvr3; assay: Cytotoxicity in vitro (CellTiter-Glo viability), SKOvr3; assay type: cell-based, human; settings: SKOvr3 (Ovarian), 72 hours
Procedure: (§5) Cells were grown and distributed into 96-well plates as described in Example 5. Cells in duplicate were incubated with 3-fold serial dilution of a particular immunoconjugate (660, 220, 73.3, 24.4, 8.14, 2.71, 0.91, and 0.3 nM) for 72 hours at 37° C. and 5% CO2. […] After treatment, cell viability was determined as described in Example 5.

[5] = tested on: TMD-8; assay: Cytotoxicity in vitro (CellTiter-Glo viability), TMD-8; assay type: cell-based, human; settings: TMD-8 (DLBCL), 72 hours
Procedure: as §5

[6] = tested on: OvCar4; assay: Cytotoxicity in vitro (CellTiter-Glo viability), OvCar4; assay type: cell-based, human; settings: OvCar4 (Ovarian), 72 hours
[7] = tested on: MDA-MB-468; assay: Cytotoxicity in vitro (CellTiter-Glo viability), MDA-MB-468; settings: read-out: EC50 (nM), cytotoxicity in vitro; MDA-MB-468 (TNBC), 72 hours
Procedure: as §1, §2, §3

[8] = tested on: TOV112D; assay: Cytotoxicity in vitro (CellTiter-Glo viability), TOV112D; assay type: cell-based, human; settings: TOV112D (Ovarian), 72 hours
Procedure: as §5

[9] = tested on: JHOM1; assay: Cytotoxicity in vitro (CellTiter-Glo viability), JHOM1; assay type: cell-based, human; settings: JHOM1 (Ovarian), 72 hours
Procedure: as §5

[10] = tested on: Bt549; assay: Cytotoxicity in vitro (CellTiter-Glo viability), Bt549; assay type: cell-based, human; settings: Bt549 (TNBC), 72 hours
Procedure: as §5

[11] = tested on: A2780; assay: Cytotoxicity in vitro (CellTiter-Glo viability), A2780; assay type: cell-based, human; settings: A2780 (Ovarian), 72 hours
[12] = tested on: ES2; assay: Cytotoxicity in vitro (CellTiter-Glo viability), ES2; assay type: cell-based, human; settings: ES2 (Ovarian), 72 hours
[13] = tested on: Mec-ROR; assay: Cytotoxicity in vitro (CellTiter-Glo viability), Mec-ROR; settings: read-out: EC50 (nM), cytotoxicity in vitro; Mec-ROR (CLL), 72 hours
Procedure: as §2
(§4) Cells were grown and distributed into 96-well plates as described in Example 5. Cells in duplicate were incubated with 3-fold serial dilution of a particular immunoconjugate (660, 220, 73.3, 24.4, 8.14, 2.71, 0.91, and 0.3 nM) for 72 hours at 37° C. and 5% CO2. In some experiments, cells were incubated with an immunoconjugate for 96 hours instead of 72 hours (values highlighted with “*”). After treatment, cell viability was determined as described in Example 5. Cell surface ROR1 expression was assessed by quantitative flow cytometry and ROR1 expression was characterized as MFI>30 or MFI<30 (MFI: mean fluorescent intensity). […]

[14] = tested on: Bx-PC3; assay: Cytotoxicity in vitro (CellTiter-Glo viability), Bx-PC3; assay type: cell-based, human; settings: Bx-PC3 (Pancreatic), 72 hours
[15] = tested on: HOS; assay: Cytotoxicity in vitro (CellTiter-Glo viability), HOS; assay type: cell-based, human; settings: HOS (OS), 72 hours
[16] = tested on: U2OS; assay type: cell-based, human; settings: U2OS (OS), 72 hours; read-out: EC50 (nM), cytotoxicity in vitro
[17] = tested on: Hep-G2; assay type: cell-based, human; settings: Hep-G2 (HCC), 72 hours; read-out: EC50 (nM), cytotoxicity in vitro
[18] = tested on: Mec-vector; assay: Cytotoxicity in vitro (CellTiter-Glo viability), Mec-vector; settings: read-out: EC50 (nM), cytotoxicity in vitro; Mec-vector (CLL), 72 hours
Procedure: as §2, §4

[19] = tested on: DU4475; assay: Cytotoxicity in vitro (CellTiter-Glo viability), DU4475; assay type: cell-based, human; settings: DU4475 (TNBC), 72 hours
[20] = tested on: As-PC1; assay: Cytotoxicity in vitro (CellTiter-Glo viability), As-PC1; assay type: cell-based, human; settings: As-PC1 (Pancreatic), 72 hours
[21] = tested on: WSU-DLCL; assay: Cytotoxicity in vitro (CellTiter-Glo viability), WSU-DLCL; assay type: cell-based, human; settings: WSU-DLCL (DLBCL), 72 hours
[22] = tested on: FaDu; assay type: cell-based, human; settings: FaDu (HN), 72 hours; read-out: EC50 (nM), cytotoxicity in vitro
[23] = tested on: U2932; assay: Cytotoxicity in vitro (CellTiter-Glo viability), U2932; assay type: cell-based, human; settings: U2932 (DLBCL), 72 hours
[24] = tested on: HCC1937; assay: Cytotoxicity in vitro (CellTiter-Glo viability), HCC1937; assay type: cell-based, human; settings: HCC1937 (TNBC), 72 hours
[25] = tested on: A549; assay: Cytotoxicity in vitro (CellTiter-Glo viability), A549; assay type: cell-based, human; settings: A549 (NSCLC), 72 hours
[26] = tested on: SAOS; assay: Cytotoxicity in vitro (CellTiter-Glo viability), SAOS; assay type: cell-based, human; settings: SAOS (OS), 72 hours
[27] = tested on: H460; assay: Cytotoxicity in vitro (CellTiter-Glo viability), H460; assay type: cell-based, human; settings: H460 (NSCLC), 72 hours
[28] = tested on: MDA-MB-231; assay: Cytotoxicity in vitro (CellTiter-Glo viability), MDA-MB-231; assay type: cell-based, human; settings: MDA-MB-231 (TNBC), 72 hours
[29] = tested on: Hep-3B; assay: Cytotoxicity in vitro (CellTiter-Glo viability), Hep-3B; assay type: cell-based; settings: Homo sapiens, Hep3B; Hep-3B (HCC), 72 hours

Question: What does the source list for `COc1cc2cc(c1Cl)N(C)C(=O)C[C@H](OC(=O)[C@H](C)N(C)C(=O)CCS)[C@]1(C)O[C@H]1[C@H](C)[C@@H]1C[C@@](O)(NC(=O)O1)[C@H](OC)/C=C/C=C(\C)C2` [DM1, N2′-Deacetyl-N2′-(3-mercaptol-oxopropyl)maytansine]?
Answer: EC50 [1]: 3.9 nM; EC50 [2]: 1.78 nM; EC50 [3]: 9.3 nM; EC50 [4]: 9.1 nM; EC50 [5]: 1.4 nM; EC50 [6]: > 1000 nM; EC50 [7]: 15.2 nM; EC50 [8]: 2.4 nM; EC50 [9]: 0.01 nM; EC50 [10]: 0.047 nM

Question: With `CC[C@H](C)[C@@H]([C@@H](CC(=O)N1CCC[C@H]1[C@H](OC)[C@@H](C)C(=O)N[C@H](C)[C@@H](O)c1ccccc1)OC)N(C)C(=O)[C@@H](NC(=O)[C@@H](NC)C(C)C)C(C)C` [MMAE, monomethyl auristatin E, reference compound] (H-[NMeV]V[Dil][Dolaproine]-X1) as the compound, how does the EC50 [2] read?
Answer: 0.007 nM

Question: What about the EC50 [11] of the same compound?
Answer: 0.08 nM

Question: What about the EC50 [12] of the same compound?
Answer: 1.1 nM

Question: What about the EC50 [4] of the same compound?
Answer: 0.01 nM

Question: And the EC50 [13]?
Answer: 0.6 nM

Question: What about the EC50 [6] of the same compound?
Answer: 24.2 nM

Question: What about the EC50 [8] of the same compound?
Answer: 0.04 nM

Question: What about the EC50 [14] of the same compound?
Answer: 0.04 nM

Question: And the EC50 [15]?
Answer: 0.06 nM

Question: And the EC50 [16]?
Answer: 1.2 nM

Question: And the EC50 [17]?
Answer: > 1000 nM

Question: What about the EC50 [9] of the same compound?
Answer: 0.01 nM

Question: What about the EC50 [18] of the same compound?
Answer: 0.5 nM

Question: And the EC50 [19]?
Answer: 2.5 nM

Question: And the EC50 [20]?
Answer: 0.04 nM

Question: What about the EC50 [21] of the same compound?
Answer: 0.06 nM

Question: What about the EC50 [22] of the same compound?
Answer: > 1000 nM

Question: And the EC50 [23]?
Answer: 0.006 nM

Question: What about the EC50 [10] of the same compound?
Answer: 0.047 nM

Question: And the EC50 [24]?
Answer: > 1000 nM

Question: And the EC50 [25]?
Answer: 0.06 nM

Question: What about the EC50 [26] of the same compound?
Answer: 0.05 nM

Question: What does the source list for `COc1cccc2c1C(=O)c1c(O)c3c(c(O)c1C2=O)C[C@@](O)(C(=O)CO)C[C@@H]3O[C@H]1C[C@H]2[C@H](O[C@@H]3[C@@H](OC)OCCN32)[C@H](C)O1` [PNU-159682, reference compound]?
Answer: EC50 [27]: 0.001 nM and 0.002 nM; EC50 [28]: 0.005 nM

Question: Which EC50 [29] does the source give for `CN(C)CCN1C(=O)c2cccc3cc4ccccc4c(c23)C1=O` [Azonafide, azonafide, reference compound] here?
Answer: > 1000 nM

Question: What about the EC50 ([25]; Homo sapiens) of the same compound?
Answer: > 1000 nM
